Drawing on patent publication US9193719B2, “1,2,4-triazol-5-ones and analogs exhibiting anti-cancer and anti-proliferative activities” (Deciphera Pharmaceuticals, LLC, priority 2013, dated 2015), this text covers IC50 for 9 molecules.

pIC50: −log10 of the molar value.

Experiment [1] deals with T1, unphosphorylated c-KIT kinase (uKIT, Seq. ID no. 2) (Homo sapiens, UniProt P10721).
T1 construct: uKit with N-terminal GST fusion used for screening
Description: uKit kinase enzymatic assay (pyruvate kinase/lactate dehydrogenase coupled). It is filed as biochemical. The following applies: ATP 2000 μM, rate 3 to 4 h. The method, then:
uKit Kinase (Seq. ID No. 2) Assay
Activity of unphosphorylated c-KIT kinase (uKIT, Seq. ID no. 2) was determined by following the production of ADP from the KIT kinase reaction with ATP and poly E4Y as substrates through coupling with the pyruvate kinase/lactate dehydrogenase system (e.g., Schindler et al. Science (2000) 289: 1938-1942). In this assay, the oxidation of NADH (thus the decrease at A340 nm) was continuously monitored spectrophometrically. The reaction mixture (100 μl) contained unphosphorylated KIT (12 nM), polyE4Y (1 mg/mL), MgCl2 (10 mM), pyruvate kinase (4 units), lactate dehydrogenase (0.7 units), phosphoenol pyruvate (1 mM), and NADH (0.28 mM) and ATP (2000 μM) in 90 mM Tris buffer containing 0.2% octyl-glucoside and 1% DMSO, pH 7.5. The inhibition reaction was started by mixing serial diluted test compound with the above reaction mixture. The absorption at 340 nm was monitored continuously for 4 hours at 30° C. on Synergy 2 plate reader (BioTech). Reaction rates around 3 to 4 h time frame were used to calculate % inhibitions, from which IC50 values were generated.

The subject of a further experiment is M-NFS-60 cells. Description: M-NFS-60 cell proliferation assay (resazurin). It is filed as cell-based. The following applies: 67 h incubation. The method, then: M-NFS-60 cells (catalog #CRL-1838) were obtained from the American Type Culture Collection (ATCC, Manassas, Va.). Briefly, cells were grown in suspension in RPMI 1640 medium supplemented with 10% characterized fetal bovine serum (Invitrogen, Carlsbad, Calif.), 0.05 mM 2-mercaptoethanol, and 20 ng/mL mouse recombinant macrophage colony stimulating factor (M-CSF) at 37° C., 5% CO2, and 95% humidity. Cells were allowed to expand until reaching saturation at which point they were subcultured or harvested for assay use.
M-NFS-60 Cell Proliferation Assay
A serial dilution of test compound was dispensed into a 384-well black clear bottom plate (Corning, Corning, N.Y.). Two thousand five hundred cells were added per well in 50 μL complete growth medium. Plates were incubated for 67 h at 37° C., 5% CO2, and 95% humidity. At the end of the incubation period 10 μL of a 440 μM solution of resazurin (Sigma, St. Louis, Mo.) in PBS was added to each well and incubated for an additional 5 h at 37° C., 5% CO2, and 95% humidity. Plates were read on a Synergy2 reader (Biotek, Winooski, Vt.) using an excitation of 540 nm and an emission of 600 nm. IC50 values were calculated from a series of percent inhibition values determined at a range of inhibitor concentrations using software routines as implemented in the GraphPad Prism software package.
(Resazurin is reduced to fluorescent resorufin, in cell work by metabolically active cells.)

For experiment [2], the target named is T2, unphosphorylated PDGFRβ kinase (uPDGFRβ, Seq. ID No. 3) (Homo sapiens, UniProt P09619).
T2 construct: purchased DeCode
Description: uPDGFRβ kinase enzymatic assay (pyruvate kinase/lactate dehydrogenase coupled). It is filed as biochemical. The note with it: ATP 500 μM, rate 1.5 to 2.5 h. As for the experimental part:
Unphosphorylated PDGFRβ (uPDGFRβ) Kinase (Seq. ID No. 3) Assay
Activity of unphosphorylated PDGFRβ kinase (uPDGFRβ, Seq. ID No. 3) was determined by following the production of ADP from the kinase reaction with ATP and poly E4Y as substrates through coupling with the pyruvate kinase/lactate dehydrogenase system (e.g., Schindler et al. Science (2000) 289: 1938-1942). In this assay, the oxidation of NADH (thus the decrease at A340 nm) was continuously monitored spectrophometrically. The reaction mixture (100 μL) contained PDGFRβ (DeCode, 15.7 nM), polyE4Y (2.5 mg/mL), MgCl2 (10 mM), pyruvate kinase (4 units), lactate dehydrogenase (0.7 units), phosphoenol pyruvate (1 mM) and NADH (0.28 mM) and ATP (500 μM) in a 90 mM Tris buffer containing 0.2% octyl-glucoside and 1% DMSO, at pH 7.5. The inhibition reaction was started by mixing serial diluted test compound with the above reaction mixture. The absorption at 340 nm was monitored continuously for 4 h at 30° C. on a Polarstar Optima or Synergy 2 plate reader. The reaction rate was calculated using the 1.5 to 2.5 h time frame. Percent inhibition was obtained by comparison of reaction rate with that of a control (i.e. with no test compound). IC50 values were calculated from a series of percent inhibition values determined at a range of inhibitor concentrations using software routines as implemented in the GraphPad Prism software package.

Experiment [3] has as its target T3, unphosphorylated c-FMS kinase (uFMS, Seq. ID no. 1) (Homo sapiens, UniProt P07333).
T3 construct: purchased Millipore
T3 sequence (P07333 538-972): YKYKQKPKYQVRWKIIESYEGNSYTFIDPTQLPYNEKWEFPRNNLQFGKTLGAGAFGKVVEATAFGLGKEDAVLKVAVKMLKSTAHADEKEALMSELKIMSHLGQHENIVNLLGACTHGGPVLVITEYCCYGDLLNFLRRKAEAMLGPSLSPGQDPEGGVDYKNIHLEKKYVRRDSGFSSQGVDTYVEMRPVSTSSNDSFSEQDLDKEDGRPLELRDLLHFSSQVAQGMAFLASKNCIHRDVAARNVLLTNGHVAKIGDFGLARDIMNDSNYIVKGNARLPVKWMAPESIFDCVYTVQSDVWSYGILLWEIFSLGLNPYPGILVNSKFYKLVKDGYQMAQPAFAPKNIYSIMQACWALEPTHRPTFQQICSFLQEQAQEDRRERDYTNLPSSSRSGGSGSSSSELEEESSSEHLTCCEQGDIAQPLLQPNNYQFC
Description: uFMS kinase enzymatic assay (pyruvate kinase/lactate dehydrogenase coupled). It counts as biochemical. The following applies: ATP 500 μM, rate 3 to 4 h. As for the experimental part: uFMS Kinase (Seq. ID No. 1) Assay
Activity of unphosphorylated c-FMS kinase (uFMS, Seq. ID no. 1) was determined by following the production of ADP from the FMS kinase reaction with ATP and poly E4Y as substrates through coupling with the pyruvate kinase/lactate dehydrogenase system (e.g., Schindler et al. Science (2000) 289: 1938-1942). In this assay, the oxidation of NADH (thus the decrease at A340 nm) was continuously monitored spectrophometrically. The reaction mixture (100 μL) contained FMS (purchased from Millipore) (10 nM), polyE4Y (1 mg/mL), MgCl2 (10 mM), pyruvate kinase (4 units), lactate dehydrogenase (0.7 units), phosphoenol pyruvate (1 mM), NADH (0.28 mM) and ATP (500 μM) in 90 mM Tris buffer containing 0.2% octyl-glucoside and 1% DMSO, pH 7.5. The inhibition reaction was started by mixing serial diluted test compound with the above reaction mixture. The absorption at 340 nm was monitored continuously for 4 hours at 30° C. on Synergy 2 plate reader. The reaction rate was calculated using the 3 to 4 h time frame. Percent inhibition was obtained by comparison of reaction rate with that of a control (i.e. in the absence of test compound). IC50 values were calculated from a series of percent inhibition values determined at a range of inhibitor concentrations using software routines as implemented in the GraphPad Prism software package.

In a further experiment the test system is osteoclast precursors. Description: Osteoclast tartrate-resistant acid phosphatase assay. It counts as cell-based. The note with it: RANKL and M-CSF, 7-14 days, tartrate-resistant acid phosphatase activity. As for the experimental part: Osteoclast Tartrate-Resistant Acid Phosphatase Assay
A serial dilution of test compound was dispensed into a 384-well black clear bottom plate (Nalge Nunc International, Rochester, N.Y.). Compound was diluted by the addition of DMEM media supplemented with 10% characterized fetal bovine serum (Invitrogen, Carlsbad, Calif.). Diluted compound was transferred to a 384-well black clear bottom plate. Two-thousand five hundred osteoclast precursors (Lonza, Walkersville, Md.) were added per well in growth media containing Receptor Activator of Nuclear Factor Kappa-beta ligand (RANKL) and M-CSF (R&D Systems, Minneapolis, Minn.). Plates were incubated for 7-14 days at 37 degrees Celsius, 5% CO2, and 95% humidity to allow differentiation of osteoclast precursors. At the end of the incubation period, 10 μL of supernatant from each well was transferred to a clear 384-well plate. Tartrate-resistant acid phosphatase activity in the supernatant samples was determined using an acid phosphatase assay kit (Sigma, St. Louis, Mo.). Absorbance was measured at 550 nm using a plate reader. Data was analyzed using Prism software (Graphpad, San Diego, Calif.) to calculate IC50 values.

T1 sequence (P10721 with tags, fused parts or gaps): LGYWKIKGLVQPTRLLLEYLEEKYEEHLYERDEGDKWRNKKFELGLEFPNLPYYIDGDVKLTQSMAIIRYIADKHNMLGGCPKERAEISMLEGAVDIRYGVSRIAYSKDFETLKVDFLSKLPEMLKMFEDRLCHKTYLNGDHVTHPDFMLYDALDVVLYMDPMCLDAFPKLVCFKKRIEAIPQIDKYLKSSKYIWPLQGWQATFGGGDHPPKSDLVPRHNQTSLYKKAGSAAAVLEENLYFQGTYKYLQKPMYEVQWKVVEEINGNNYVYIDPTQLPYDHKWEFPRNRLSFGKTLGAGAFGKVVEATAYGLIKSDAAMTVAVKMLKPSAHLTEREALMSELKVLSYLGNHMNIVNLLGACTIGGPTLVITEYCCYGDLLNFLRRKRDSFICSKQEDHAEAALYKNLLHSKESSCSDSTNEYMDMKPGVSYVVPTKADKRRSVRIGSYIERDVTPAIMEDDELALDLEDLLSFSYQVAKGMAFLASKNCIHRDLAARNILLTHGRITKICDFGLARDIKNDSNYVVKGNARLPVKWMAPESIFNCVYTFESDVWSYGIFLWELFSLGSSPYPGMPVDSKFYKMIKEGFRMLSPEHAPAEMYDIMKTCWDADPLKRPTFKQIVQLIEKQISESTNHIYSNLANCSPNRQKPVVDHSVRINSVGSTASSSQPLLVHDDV
T2 sequence (P09619 557-1106): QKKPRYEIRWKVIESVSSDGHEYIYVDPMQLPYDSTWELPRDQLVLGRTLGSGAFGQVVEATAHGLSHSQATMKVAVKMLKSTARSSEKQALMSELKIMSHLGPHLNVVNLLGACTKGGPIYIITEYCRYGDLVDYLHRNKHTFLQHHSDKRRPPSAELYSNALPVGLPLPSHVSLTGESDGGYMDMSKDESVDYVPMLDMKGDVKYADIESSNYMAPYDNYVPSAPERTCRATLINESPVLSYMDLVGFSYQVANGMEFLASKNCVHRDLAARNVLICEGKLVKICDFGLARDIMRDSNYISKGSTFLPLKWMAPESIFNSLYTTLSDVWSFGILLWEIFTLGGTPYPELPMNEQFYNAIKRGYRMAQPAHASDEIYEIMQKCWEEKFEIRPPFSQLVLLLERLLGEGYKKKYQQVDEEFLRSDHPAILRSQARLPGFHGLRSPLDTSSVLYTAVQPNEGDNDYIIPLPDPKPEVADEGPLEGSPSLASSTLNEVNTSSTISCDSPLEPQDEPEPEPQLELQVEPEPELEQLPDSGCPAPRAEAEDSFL

With `CCc1nc(-n2nc(C(C)(C)C)[nH]c2=O)ccc1Oc1ccnc(-c2cnn(C)c2)c1` [Example 8, 3-(tert-butyl)-1-(6-ethyl-5-((2-(1-methyl-1H-pyrazol-4-yl)pyridin-4-yl)oxy)pyridin-2-yl)-1H-1,2,4-triazol-5(4H)-one], the pIC50 (in general, −log10 of the IC50, conventionally taken in molar units) was below 6.00 in experiment [1]; 6.00 to 7.00 in the experiment on M-NFS-60 cells; below 6.00 in experiment [2]; 6.00 to 7.00 in experiment [3]; 6.00 to 7.00 in the experiment on osteoclast precursors.
Regarding `CC(=O)Nc1cc(Oc2ccc(-n3nc(C(C)(C)C)[nH]c3=O)nc2C)ccn1` [Example 11, N-(4-((6-(3-(tert-butyl)-5-oxo-4,5-dihydro-1H-1,2,4-triazol-1-yl)-2-methylpyridin-3-yl)oxy)pyridin-2-yl)acetamide], the pIC50 was below 6.00 in experiment [1]; 6.00 to 7.00 in the experiment with M-NFS-60 cells; below 6.00 in experiment [2]; 7.00 to 8.00 in experiment [3]; 6.00 to 7.00 with osteoclast precursors.
For `Cc1ncc(-c2cc(Oc3ccc(-n4nc(C(C)(C)C)[nH]c4=O)nc3C)ccn2)s1` [Example 12, 3-(tert-butyl)-1-(6-methyl-5-((2-(2-methylthiazol-5-yl)pyridin-4-yl)oxy)pyridin-2-yl)-1H-1,2,4-triazol-5(4H)-one], the pIC50 in experiment [1] was 6.00 to 7.00; in the experiment on M-NFS-60 cells, 7.00 to 8.00; in experiment [2], below 6.00; in experiment [3] it was 7.00 to 8.00; in the experiment on osteoclast precursors, 7.00 to 8.00.
For `COCCc1nn(-c2ccc(Oc3ccnc(-c4cnn(C)c4)c3)c(C)n2)c(=O)[nH]1` [Example 15, 3-(2-methoxyethyl)-1-(6-methyl-5-((2-(1-methyl-1H-pyrazol-4-yl)pyridin-4-yl)oxy)pyridin-2-yl)-1H-1,2,4-triazol-5(4H)-one], the pIC50 in experiment [1] was below 6.00; in the experiment on M-NFS-60 cells, below 6.00; in experiment [2] it was below 6.00; in experiment [3], 7.00 to 8.00; in the experiment with osteoclast precursors it was 6.00 to 7.00.
`COCc1nn(-c2ccc(Oc3ccnc(-c4cnn(C)c4)c3)c(C)n2)c(=O)[nH]1` [Example 17, 3-(methoxymethyl)-1-(6-methyl-5-((2-(1-methyl-1H-pyrazol-4-yl)pyridin-4-yl)oxy)pyridin-2-yl)-1H-1,2,4-triazol-5(4H)-one]: the pIC50 was below 6.00 in experiment [1], below 6.00 in the experiment on M-NFS-60 cells, 6.00 to 7.00 in experiment [3] and below 6.00 in the experiment with osteoclast precursors.
For `Cc1nc(-n2nc(C(C)(C)C)[nH]c2=O)ccc1Oc1ccnc(-c2cnn(CCO)c2)c1` [Example 18, 3-(tert-butyl)-1-(5-((2-(1-(2-hydroxyethyl)-1H-pyrazol-4-yl)pyridin-4-yl)oxy)-6-methylpyridin-2-yl)-1H-1,2,4-triazol-5(4H)-one], the pIC50 was 6.00 to 7.00 in experiment [1]; 6.00 to 7.00 in the experiment with M-NFS-60 cells; below 6.00 in experiment [2]; 7.00 to 8.00 in experiment [3]; 6.00 to 7.00 in the experiment with osteoclast precursors.
As to `Cc1cn(-c2cc(Oc3ccc(-n4nc(C(C)(C)C)[nH]c4=O)nc3C)ccn2)cn1` [Example 19, 3-(tert-butyl)-1-(6-methyl-5-((2-(4-methyl-1H-imidazol-1-yl)pyridin-4-yl)oxy)pyridin-2-yl)-1H-1,2,4-triazol-5(4H)-one], the pIC50 in experiment [1] is below 6.00; with M-NFS-60 cells it was 6.00 to 7.00; in experiment [2], below 6.00; in experiment [3], 7.00 to 8.00; in the experiment with osteoclast precursors, 6.00 to 7.00.
Take `Cc1nc(-n2nc(C(C)(C)C)[nH]c2=O)ccc1Oc1ccnc(NC(=O)C2CCN(C)CC2)c1` [Example 21, N-(4-((6(3-(tert-butyl)-5-oxo-4,5-dihydro-1H-1,2,4-triazol-1-yl)-2-methylpyridin-3-yl)oxy)pyridin-2-yl)-1-methylpiperidine-4-carboxamide]: the pIC50 in experiment [1] is below 6.00; in the experiment on M-NFS-60 cells, below 6.00; in experiment [2], below 6.00; in experiment [3], 6.00 to 7.00; in the experiment on osteoclast precursors, 6.00 to 7.00.
Turning to `Cc1nc(-n2nc(C(C)(C)C)[nH]c2=O)ccc1Oc1ccnc(-c2cn(C)cn2)c1` [Example 23, 3-(tert-butyl)-1-(6-methyl-5-((2-(1-methyl-1H-imidazol-4-yl)pyridin-4-yl)oxy)pyridin-2-yl)-1H-1,2,4-triazol-5(4H)-one], the pIC50 in experiment [1] was below 6.00; with M-NFS-60 cells, 6.00 to 7.00; in experiment [2], below 6.00; in experiment [3] it was 7.00 to 8.00; with osteoclast precursors, 7.00 to 8.00.
